Measurements from patent US20230340530A1, “Methods of Protecting RNA” (Pfizer Inc., priority 2020, published 2023).

Each compound was assayed against RNA samples (Chi18 or HCV IRES) (assay: Droplet Digital Polymerase Chain Reaction (ddPCR) assay of RNA protection). Conditions: 50 mM Tris buffer pH 11.4, 16 hrs at 30° C. for Chi18 or 42° C. for HCV; table does not say which RNA; 600 µM to 0.018 µM compound, 2% DMSO; read-out: EC50 Values Obtained from the ddPCR Assay.
Type: biochemical
Description: The ddPCR assays measured RNA integrity by converting intact RNA to cDNA by reverse transcription, then performing digital PCR in thousands of nanoliter-sized droplets for each sample. PCR was performed within each droplet, which allowed for more sensitive detection of subtle changes in RNA concentration compared to traditional PCR or qPCR. Additionally, primers/probes specific to the 5′ end of the RNA/cDNA transcript(s) were used to assess fragment integrity, i.e. degraded RNA had fewer 5′ positive droplets. The BioRad QX200 Droplet Digital PCR System was used for the ddPCR workflow.
RNA samples (Chi18 or HCV IRES) were diluted to 100 fg/µL in 50 mM Tris buffer pH 11.4. Boron compounds were tested in a dose-response format to determine EC50. A compound dilution plate that contained a 30 mM top concentration of compound in DMSO was serially (half-log) diluted 10 times. A quantity of 0.12 µL of this compound dilution plate was spotted into a 96-well PCR plate (Thermo). Sample RNAs were added (6 µL) and incubated with test compounds as described below. Final compound concentrations ranged from 600 µM to 0.018 µM in 2% DMSO.
For the degradation reaction, treated RNAs were incubated for 16 hrs at 30° C. for Chi18 samples or 42° C. for HCV samples. Upon completion of the degradation reaction, cDNA was made and ddPCR run for each sample (96 well plates). Positive 5′ droplet values were divided by the total accepted droplet values for each sample and a ratio value generated for each sample.
Data was imported into a database where percent (%) protection and compound EC50 were calculated and curated. […] EC50 was determined by using a four parameter logistic equation: Y=A+((B-A)/(1+(C/X)D)); where Y is percent protection, X is compound concentration, A and B are minimum and maximum asymptotes, respectively, C is EC50, and D is Hill slope.
In the case of `C[C@H]1c2ccc(NC(=O)CCC(=O)NC[C@H]3CCB(O)O3)c(O)c2C(=O)C2=C(O)[C@]3(O)C(=O)C(C(N)=O)=C(O)[C@@H](N(C)C)[C@@H]3[C@@H](O)[C@@H]21` (racemic) [PF-06968488, N~1~-[(5RS,5aRS,6SR,6aRS,7S R,10aSR)-9-carbamoyl-7-(dimethylamino)-1,6,8,10a,11-pentahydroxy-5-methyl-10,12-dioxo-5,5a,6,6a,7,10,10a,12-octahydrotetracen-2-yl]-N~4~-{[(5RS)-2-hydroxy-1,2-oxaborolan-5-y I]methyl}butanediamide], the EC50 is reported as 189 µM.
Work on “bis(acetato-kappaO)[1-cyclopropyl-6,7-difluoro-8-methyl-4-(oxo-kappaO)-1,4-dihydroquinoline-3-carboxylato-kappaO]boron [PF-04743686]” yielded an EC50 of 271 µM.
With `O=C(OB(c1cccc(F)c1)c1cccc(F)c1)c1ncccc1O` [PF-06956417] the EC50 was 430 µM.
`CC(C)(C)OC(=O)NCCC[B-](F)(F)F` [PF-06934734, {3-[(tert-butoxycarbonyl)amino]propyl}(trifluorido)borate(1-)] gave an EC50 of 302 µM.
`BBBBBBBBBB1C(Cc2ccc(O)cc2)=C1Cc1ccc(O)cc1` [PF-01914444, 4,4′-{[1-(nonaboran-1-yl)-1H-borirene-2,3-diyl]bis(methylene)}diphenol] showed an EC50 of 488 µM.
`C[C@H]1c2ccc(NC(=O)c3ccc4c(c3)B(O)OC4(C)C)c(O)c2C(=O)C2=C(O)[C@]3(O)C(=O)C(C(N)=O)=C(O)[C@@H](N(C)C)[C@@H]3[C@@H](O)[C@@H]21` [PF-06968101, N-[(5R,5aR,6S,6aR,7S,10aS)-9-carbamoyl-7-(dimethylamino)-1,6,8,10a,11-pentahydroxy-5-methyl-10,12-dioxo-5,5a,6,6a,7,10,10a,12-octahydrotetracen-2-yl]-1-hydroxy-3,3-dimethyl-1,3-dihydro-2,1-benzoxaborole-6-carboxamide] showed an EC50 of 162 µM.
`CN1CCN(Cc2ccc(B(Oc3cccc4cccnc34)c3ccc(C#N)c(Cl)c3)cc2F)CC1` [PF-06956823, quinolin-8-yl (3-chloro-4-cyanophenyl){3-fluoro-4-[(4-methylpiperazin-1-yl)methyl]phenyl}borinate] gave an EC50 of 175 µM.
`CN1CCN(Cc2ccc(B(Oc3cccc4cccnc34)c3ccc(C#N)c(Cl)c3)cc2)CC1` [PF-06956831, quinolin-8-yl (3-chloro-4-cyanophenyl){4-[(4-methylpiperazin-1-yl)methyl]phenyl}borinate] gave an EC50 of 242 µM.
`CN(C)/C(O)=C/C1=[O+][B-](F)(F)Oc2cc(O)ccc21` [PF-03806704, {(2Z)-3-(dimethylamino)-3-hydroxy-1-[4-hydroxy-2-(hydroxy-kappaO)phenyl]prop-2-en-1-onato-kappaO}(difluorido)boron] gave an EC50 of 323 µM.
`O=C(OCc1cccc(B2OCc3cc(F)ccc32)c1)c1ccc2cccc(O)c2n1` [PF-06957137, [3-(5-fluoro-2,1-benzoxaborol-1 (3H)-yl)phenyl]methyl 8-hydroxyquinoline-2-carboxylate] showed an EC50 of 429 µM.
`CN1CCN(Cc2cccc(B(Oc3cccc4cccnc34)c3ccc(C#N)cc3)c2)CC1` [PF-06957315, quinolin-8-yl (4-cyanophenyl){3-[(4-methylpiperazin-1-yl)methyl]phenyl}borinate] was tested, and the EC50 was 253 µM.
Compound `Cc1cccnc1N(C(=O)c1ccc([B-](F)(F)F)cc1)[C@@H]1CCCN(C(=O)OC(C)(C)C)C1` [PF-06875313, (4-{[(3R)-1-(tert-butoxycarbonyl)piperidin-3-yl](3-methylpyridin-2-yl)carbamoyl}phenyl)(trifluor ido)borate(1-)] has an EC50 of 360 µM.
`Cc1cc(C(=O)O)ccc1B1OC(C)(C)C(C)(C)O1` [PF-05417781, 3-methyl-4-(4,4,5,5-tetramethyl-1,3,2-dioxaborolan-2-yl)benzoic acid] showed an EC50 of 463 µM.
With `CN(C)Cc1ccc(B(Oc2cccc3cccnc23)c2cccc(C#N)c2)cc1Cl` [PF-06956816, quinolin-8-yl {3-chloro-4-[(dimethylamino)methyl]phenyl}(3-cyanophenyl)borinate] the EC50 was 137 µM.
For `C[C@H]1c2ccc(NC(=O)CNc3ccc4c(c3)B(O)OC4(C)C)c(O)c2C(=O)C2=C(O)[C@]3(O)C(=O)C(C(N)=O)=C(O)[C@@H](N(C)C)[C@@H]3[C@@H](O)[C@@H]21` [PF-06968306, (4S,4aR,5S,5aR,6R,12aS)-4-(dimethylamino)-3,5,10,12,12a-pentahydroxy-9-{[N-(1-hydroxy-3,3-dimethyl-1,3-dihydro-2,1-benzoxaborol-6-yl)glycyl]amino}-6-methyl-1,11-dioxo-1,4,4a,5,5a,6,11,12a-octahydrotet racene-2-carboxamide], the EC50 was 234 µM.
`COC(=O)c1cc(B2OC(C)(C)C(C)(C)O2)cc(C(=O)OC)n1` [PHA-00804319, dimethyl 4-(4,4,5,5-tetramethyl-1,3,2-dioxaborolan-2-yl)pyridine-2,6-dicarboxylate] was tested, and the EC50 was 214 µM.
`C[C@H]1c2ccc(NCC(=O)Nc3ccc4c(c3)B(O)OC4)c(O)c2C(=O)C2=C(O)[C@]3(O)C(=O)C(C(N)=O)=C(O)[C@@H](N(C)C)[C@@H]3[C@@H](O)[C@@H]21` [PF-06968419, (4S,4aR,5S,5aR,6R,12aS)-4-(dimethylamino)-3,5,10,12,12a-pentahydroxy-9-({2-[(1-hydroxy-1,3-dihydro-2,1-benzoxaborol-6-yl)amino]-2-oxoethyl}amino)-6-methyl-1,11-dioxo-1,4,4a,5,5a,6,11,12a-octahydrotetr acene-2-carboxamide] gave an EC50 of 75.1 µM.
`O=C(Nc1ccc2c(c1)B(O)OC2)c1ccccc1` [PF-06957640, N-(1-hydroxy-1,3-dihydro-2,1-benzoxaborol-6-yl)benzamide] showed an EC50 of 266 µM.
In the case of `OB(c1ccc(Cl)cc1)c1ccc(Cl)cc1` [PF-05690484, bis(4-chlorophenyl)borinic acid], the EC50 is reported as 355 µM.
`Cc1cc(Oc2ccnc(NCCN)n2)cc2c1C(CC(=O)O)OB2O` (stereo not drawn) [PF-06959336, 2-(6-((2-((2-aminoethyl)amino)pyrimidin-4-yl)oxy)-1-hydroxy-4-methyl-1,3-dihydrobenzo[c][1,2]oxabor ol-3-yl)acetic acid] was tested, and the EC50 was 114 µM.
For `CN1CCN(Cc2ccc([B@@-]3(c4ccc(C#N)cc4)Oc4cccc5ccc[n+]3c45)cc2Cl)CC1` [PF-06956838, {3-chloro-4-[(4-methylpiperazin-1-yl)methyl]phenyl}(4-cyanophenyl)(quinolin-8-olato-kappa-2-N,O)boron], the EC50 was 207 µM.
`C[C@H]1c2c(NC(=O)c3ccc4c(c3)B(O)OC4(C)C)ccc(O)c2C(=O)C2=C(O)[C@]3(O)C(=O)C(C(N)=O)=C(O)[C@@H](N(C)C)[C@@H]3[C@@H](O)[C@@H]21` [PF-06968370, N-[(6aS,10S,10aR,11S,11aR, 12R)-8-carbamoyl-10-(dimethylamino)-4,6,6a,9,11-pentahydroxy-12-methyl-5,7-dioxo-5,6a,7,10,10a,11,11a,12-octahydrotetracen-1-yl]-1-hydroxy-3,3-dimethyl-1,3-dihydro-2,1-benzox aborole-6-carboxamide] gave an EC50 of 258 µM.
With `C=C(CN(C)Cc1ccccc1)[B-](F)(F)F` [PF-06840997, {3-[benzyl(methyl)amino]prop-1-en-2-yl}(trifluorido)borate(1-)] the EC50 was 306 µM.
Compound `O=C(O)C[C@@H]1OB(O)c2cccc(B(O)O)c21` [PF-06961361, [(3S)-4-borono-1-hydroxy-1,3-dihydro-2,1-benzoxaborol-3-yl]acetic acid] has an EC50 of 226 µM.
`C[C@H]1c2ccc(NC(=O)c3ccc4c(c3)B(O)OC4)c(O)c2C(=O)C2=C(O)[C@]3(O)C(=O)C(C(N)=O)=C(O)[C@@H](N(C)C)[C@@H]3[C@@H](O)[C@@H]21` [PF-06968126, N-[(5R,5aR6S,6aR,7S,10aS)-9-carbamoyl-7-(dimethylamino)-1,6,8,10a,11-pentahydroxy-5-methyl-10,12-dioxo-5,5a,6,6a,7,10,10a,12-octahydrotetracen-2-yl]-1-hydroxy-1,3-dihydro-2,1-benzoxaborole-6-carboxamide] was tested, and the EC50 was 393 µM.
In the case of `CN(C)/C(O)=C/C1=[O+][B-](F)(F)OC=C1c1ccccc1` [PF-03696713, [(1Z)-1-(dimethylamino)-1-hydroxy-5-(hydroxy-kappaO)-4-phenylpenta-1,4-dien-3-onato-kappaO](difluorido)boron], the EC50 is reported as 400 µM.
Compound `CN1CCN(Cc2cccc([B@@-]3(c4ccc(F)cc4)Oc4cccc5ccc[n+]3c45)c2)CC1` [PF-06956810, (4-fluorophenyl){3-[(4-methylpiperazin-1-yl)methyl]phenyl}(quinolin-8-olato-kappa-2-N,O)boron] has an EC50 of 140 µM.
